Data set [1] deals with murine melanoma B16-F10 cells. Nature of the data set: In vitro cytotoxicity, neutral red staining after 72 hours. The settings on record: for Cytotoxicity IC50: 72 hours incubation.
Experimental: For in vitro cytotoxicity experiment, murine melanoma B16-F10 cells were grown and maintained in Eagle's minimum essential medium (Nissui), which contains kanamycin (60 µg/ml), supplemented with heat-inactivated fetal calf serum (10%) and nonessential amino acids (0.6%) at 37°C under a humidified atmosphere in a 5% CO₂ incubator. Exponentially growing B16-F10 cells were harvested, counted and suspended in the culture medium at the concentration of 2.0x10⁴ cells/ml. The cell suspension (180 µl) was planted into wells of a 96-well microtiter plate and incubated for 24 hours. Test compounds (20 µl) were added to the wells and the plates were further incubated for 72 hours. The cytotoxic activity was colorimetrically determined at 540 nm after staining viable cells with neutral red solution.
For data set [2], the system named is lymphocytic leukemia P388. Nature of the data set: In vivo antitumor activity against P388 leukemia in mice. The note with it: for T/C % of MST: P388, female CDF1 mice, Q1Dx3 ip. As to the method: (§1) In vivo antitumor activity of the above fifteen derivatives was tested in the lymphocytic leukemia P388 and melanoma B16 systems. Female CDF₁ (for P388) and male BDF₁ (for B16) mice were inoculated by ip injection at 10⁶ P388 cells and 0.5 ml of a 10% B16 brei per mouse, respectively (day 0). […] The percent increase of median survival time (MST) of treated animals over that of untreated control animals was determined and reported as T/C %. Compounds showing T/C % values of 125 or greater are considered to have significant antitumor activity.

Data set [3] has as its system melanoma B16. Nature of the data set: In vivo antitumor activity against B16 melanoma in mice. The note with it: for No. of survivors/tested on day 50 / T/C % of MST: Q4Dx3 ip; for T/C % of MST: B16, male BDF1 mice. As for the experimental part: as §1

The structures appear in SMILES notation. Where only a bound is given, the exact number is not on record here.

As for `COc1c2cccc(OC3OC(C)C(O)C(C)(O)C3OC3OC(C)C(O)C(OC)C3N)c2c2oc(=O)c3c(C)ccc4oc(=O)c1c2c43` (stereo not drawn) [Compound 7a, 6-O-Methylelsamicin A], the “Cytotoxicity IC50” value in data set [1] stood at 0.19 µg/mL.
For the compound `CCOc1c2cccc(OC3OC(C)C(O)C(C)(O)C3OC3OC(C)C(O)C(OC)C3N)c2c2oc(=O)c3c(C)ccc4oc(=O)c1c2c43` (stereo not drawn) [Compound 7b, 6-O-Ethylelsamicin A], the “T/C % of MST” value was 110% in data set [2] (0.1 mg/kg/day); 125% in data set [2] (0.3 mg/kg/day); 130% in data set [2] (1 mg/kg/day); 150% in data set [2] (3 mg/kg/day); 170% in data set [2] (10 mg/kg/day); 170% in data set [2] (20 mg/kg/day). Moreover, the “T/C % of MST” value in data set [2] (40 mg/kg/day) is given as 180%; in data set [3] (0.1 mg/kg/day), 103%; in data set [3] (0.3 mg/kg/day), 113%; in data set [3] (1 mg/kg/day) it was 144%; in data set [3] (3 mg/kg/day), 178%; in data set [3] (10 mg/kg/day), “≧313%”. Moreover, in data set [2] (P388 system, in words), the “anti-P388 activity compared with elsamicin A” value was “as active as elsamicin A”. Further, the “toxicity compared with elsamicin A” value in data set [2] (P388 system, in words) was “seemed to be less toxic”. In addition, the “No. of survivors/tested on day 50” value in data set [3] (B16, 10 mg/kg/day) is given as “(3/4)”. Besides, the “chemotherapeutic activity in the B16 system” value in data set [3] (B16 system, in words) is on record as “excellent chemotherapeutic activity”. For the same compound, in data set [1], the “Cytotoxicity IC50” value was found to be 0.06 µg/mL. In addition, in data set [1] (in words, versus elsamicin A), the “cytotoxicity compared with the parent compound” value is given as “approximately equipotent cytotoxicity to the parent compound”.
As for `COC1C(N)C(OC2C(Oc3cccc4c(OC(C)C)c5c(=O)oc6ccc(C)c7c(=O)oc(c34)c5c67)OC(C)C(O)C2(C)O)OC(C)C1O` (stereo not drawn) [Compound 7d, 6-O-Isopropylelsamicin A], the “T/C % of MST” value in data set [2] (0.1 mg/kg/day) is recorded as 95%; in data set [2] (0.3 mg/kg/day), 119%; in data set [2] (1 mg/kg/day), 124%; in data set [2] (3 mg/kg/day), 133%; in data set [2] (10 mg/kg/day), 148%. For the same compound, the “Cytotoxicity IC50” value in data set [1] is 0.49 µg/mL.
For the compound `CCCCCCOc1c2cccc(OC3OC(C)C(O)C(C)(O)C3OC3OC(C)C(O)C(OC)C3N)c2c2oc(=O)c3c(C)ccc4oc(=O)c1c2c43` (stereo not drawn) [Compound 7f, 6-O-n-Hexylelsamicin A], the “T/C % of MST” value in data set [2] (0.1 mg/kg/day) worked out at 100%; in data set [2] (0.3 mg/kg/day), 105%; in data set [2] (1 mg/kg/day) it was 120%; in data set [2] (3 mg/kg/day), 130%; in data set [2] (10 mg/kg/day) it was 140%; in data set [3] (0.1 mg/kg/day), 107%. The “T/C % of MST” value turned out to be 111% in data set [3] (0.3 mg/kg/day), 129% in data set [3] (1 mg/kg/day), 132% in data set [3] (3 mg/kg/day) and 146% in data set [3] (10 mg/kg/day). In addition, the “Cytotoxicity IC50” value in data set [1] came to 0.11 µg/mL.
Regarding `CCCCCCCCCCOc1c2cccc(OC3OC(C)C(O)C(C)(O)C3OC3OC(C)C(O)C(OC)C3N)c2c2oc(=O)c3c(C)ccc4oc(=O)c1c2c43` (stereo not drawn) [Compound 7g, 6-O-n-Decylelsamicin A], the “T/C % of MST” value was determined as 115% in data set [2] (0.3 mg/kg/day); 105% in data set [2] (1 mg/kg/day); 115% in data set [2] (3 mg/kg/day); 100% in data set [2] (10 mg/kg/day); 107% in data set [3] (0.3 mg/kg/day); 126% in data set [3] (1 mg/kg/day). Further, the figures for the “T/C % of MST” value in data set [3] (3 mg/kg/day) and in data set [3] (10 mg/kg/day) were 153% and 183%, respectively. Moreover, in data set [1], the “Cytotoxicity IC50” value worked out at 2.5 µg/mL.
For the compound `COC1C(N)C(OC2C(Oc3cccc4c(OCCCN5C(=O)c6ccccc6C5=O)c5c(=O)oc6ccc(C)c7c(=O)oc(c34)c5c67)OC(C)C(O)C2(C)O)OC(C)C1O` (stereo not drawn) [Compound 7h, 6-O-(3-phthalimidopropyl)elsamicin A], the “T/C % of MST” value in data set [2] (0.1 mg/kg/day) amounted to 105%; in data set [2] (0.3 mg/kg/day), 105%; in data set [2] (1 mg/kg/day) it was 120%; in data set [2] (3 mg/kg/day) it was 125%; in data set [2] (10 mg/kg/day), 140%. In addition, the “Cytotoxicity IC50” value in data set [1] was found to be 0.71 µg/mL.
Turning to `COC1C(N)C(OC2C(Oc3cccc4c(OCCCN)c5c(=O)oc6ccc(C)c7c(=O)oc(c34)c5c67)OC(C)C(O)C2(C)O)OC(C)C1O` (stereo not drawn) [Compound 7i, 6-O-(3-Aminopropyl)elsamicin A], the “T/C % of MST” value in data set [2] (0.3 mg/kg/day) is recorded as 105%; in data set [2] (1 mg/kg/day), 110%; in data set [2] (3 mg/kg/day), 110%; in data set [2] (10 mg/kg/day), 130%. Moreover, the “Cytotoxicity IC50” value in data set [1] was found to be 2.3 µg/mL.
Regarding `COc1c2cccc(OC3OC(C)C4OC(C)(C)OC4(C)C3OC3OC(C)C(O)C(OC)C3N)c2c2oc(=O)c3c(C)ccc4oc(=O)c1c2c43` (stereo not drawn) [Compound 8a, 3',4'-O-Isopropylidene-6-O-methylelsamicin A], the “Cytotoxicity IC50” value in data set [1] was determined as 0.08 µg/mL.
For the compound `CCCCCCOc1c2cccc(OC3OC(C)C4OC(C)(C)OC4(C)C3OC3OC(C)C(O)C(OC)C3N)c2c2oc(=O)c3c(C)ccc4oc(=O)c1c2c43` (stereo not drawn) [Compound 8f, 6-O-n-Hexyl-3'4'-O-isopropylideneelsamicin A], the “T/C % of MST” value in data set [2] (0.1 mg/kg/day) is reported as 110%; in data set [2] (0.3 mg/kg/day), 110%; in data set [2] (1 mg/kg/day), 110%; in data set [2] (3 mg/kg/day), 115%; in data set [2] (10 mg/kg/day) it was 120%. Also, the “Cytotoxicity IC50” value in data set [1] was found to be 0.9 µg/mL.
As to `CCCCCCCCCCOc1c2cccc(OC3OC(C)C4OC(C)(C)OC4(C)C3OC3OC(C)C(O)C(OC)C3N)c2c2oc(=O)c3c(C)ccc4oc(=O)c1c2c43` (stereo not drawn) [Compound 8g, 6-O-n-Decyl-3'4'-O-isopropylideneelsamicin A], the “T/C % of MST” value in data set [2] (0.3 mg/kg/day) is 115%; in data set [2] (1 mg/kg/day) it was 105%; in data set [2] (3 mg/kg/day), 115%; in data set [2] (10 mg/kg/day), 100%. For the same compound, the “Cytotoxicity IC50” value in data set [1] turned out to be 2.9 µg/mL.
As for `COC1C(N)C(OC2C(Oc3cccc4c(OCCCN5C(=O)c6ccccc6C5=O)c5c(=O)oc6ccc(C)c7c(=O)oc(c34)c5c67)OC(C)C3OC(C)(C)OC32C)OC(C)C1O` (stereo not drawn) [Compound 8h, 3'4'-O-Isopropylidene-6-O-(3-phthalimidopropyl)elsamicin A], the “T/C % of MST” value in data set [2] (0.1 mg/kg/day) turned out to be 100%; in data set [2] (0.3 mg/kg/day), 110%; in data set [2] (1 mg/kg/day), 110%; in data set [2] (3 mg/kg/day), 120%; in data set [2] (10 mg/kg/day), 130%. Also, in data set [1], the “Cytotoxicity IC50” value amounted to 0.4 µg/mL.
As to `COC1C(N)C(OC2C(Oc3cccc4c(OCCCN)c5c(=O)oc6ccc(C)c7c(=O)oc(c34)c5c67)OC(C)C3OC(C)(C)OC32C)OC(C)C1O` (stereo not drawn) [Compound 8i, 6-O-(3-Aminopropyl)-3',4'-isopropylideneelsamicin A], the “T/C % of MST” value in data set [2] (0.3 mg/kg/day) is 105%; in data set [2] (1 mg/kg/day), 110%; in data set [2] (3 mg/kg/day) it was 120%; in data set [2] (10 mg/kg/day) it was 135%. Further, in data set [1], the “Cytotoxicity IC50” value turned out to be 1.8 µg/mL.
In the case of `COC1C(N)C(OC2C(Oc3cccc4c(O)c5c(=O)oc6ccc(C)c7c(=O)oc(c34)c5c67)OC(C)C(O)C2(C)O)OC(C)C1O` (stereo not drawn) [Elsamicin A (1), Elsamicin A], the “T/C % of MST” value was 124% in data set [2] (0.1 mg/kg/day); 138% in data set [2] (0.3 mg/kg/day); 155% in data set [2] (1 mg/kg/day); 180% in data set [2] (3 mg/kg/day); 206% in data set [2] (10 mg/kg/day); “Tox” in data set [2] (20 mg/kg/day). For the same compound, the “T/C % of MST” value in data set [3] (0.1 mg/kg/day) was 120%; in data set [3] (0.3 mg/kg/day), 139%; in data set [3] (1 mg/kg/day), 178%; in data set [3] (3 mg/kg/day), no less than 216%; in data set [3] (10 mg/kg/day), no less than 305%. In addition, the “No. of survivors/tested on day 50” value is 2/24 in data set [3] (B16, 3 mg/kg/day) and 9/24 in data set [3] (B16, 10 mg/kg/day). For the same compound, the “Cytotoxicity IC50” value in data set [1] was 0.05 µg/mL.

The values above are taken from patent EP0516157A1, “Preparation of 6-0-alkylelsamicin A derivatives” (priority 1991, dated 1992).
